Assay results from patent publication US7611852B2, “Functional cardiomyocytes from human embryonic stem cells” (Wisconsin Alumni Research Foundation, priority 2002, dated 2009).

Legend:
[1] = system: embryonic atrial-like cardiomyocytes; assay: Intracellular action potential recording with sharp microelectrodes, embryonic atrial-like cardiomyocytes in EBs; format: cell-based, human
From the text: The applicants here have determined that the HERG channel response of cardiomyocytes in culture created from human embryonic stem cells can be tested and that they do have the same responsive characteristics as mature heart cells in adult humans. Shown in FIG. 5 is an experiment conducted on an atrial type cell, which is a cardiomyocyte in an EB in culture. Note that the electrical profile of the potential generated by that cell, labeled basal in FIG. 5, is characteristic of an embryonic atrial type action potential. To the culture in which that basal signal was being observed, 500 nanomolar E4031 was added. E4031 is a known highly specific HERG channel blocker which blocks the rapid delayed rectifying potassium current (IKr) in adult human heart cells. The addition of that chemical to the medium in which the EB was cultured led to the modification of the action potential generated by that atrial type cell, as illustrated by the curve marked “500 nM E4031” in FIG. 5. The action potential was prolonged due to delayed return to a resting state. This is precisely the effect that this molecule, E4031, is known to have on adult heart cells and precisely the effect that one would predict from the blockage of the HERG channel.
(§1) A single beating, microdissected EB outgrowth was cultured on a glass coverslip for 1-10 days. The coverslip was then attached to the bottom of an experimental chamber mounted on an inverted microscope (Nikon Diaphot 200). The EBs were perfused with Tyrodes solution consisting of (mmol/L): 140 NaCl, 1 MgCl2, 10 HEPES, 10 Glucose, 1.8 CaCl2, pH 7.4 with NaOH at 37° C. Contractions were measured using video edge detection. For intracellular electrophysiology experiments, sharp glass microelectrodes were fabricated with resistances of 30-100 MΩ when filled with 3 mol/L KCl. Spontaneously beating EBs were impaled with the microelectrodes and pipette capacitance was nulled. […] In some experiments, the preparation underwent electrical field stimulation at rates from 1 to 3 Hz. Data were digitized at 20 kHz and filtered at 2 kHz. APs were analyzed using pClamp8.02 (Axon Instruments, Foster City, Calif.) and Origin 6.0 software (Microcal Inc, Northampton, Mass.) to determine AP duration at 50% and 90% of repolarization (APD50 and APD90), AP amplitude (APA), maximum diastolic potential (MDP), and the maximum rate of rise of the AP upstroke (dV/dtmax).
Repolarization of the cardiac action potential is due to multiple ionic currents with an important role played by voltage gated K+ channels; however, there is significant species variability of the exact type of K+ channels present. In human heart, current through HERG potassium channels (KCNH2), IKr, plays a major role in repolarization of the action potential. […]

[2] = system: embryonic ventricular-like cardiomyocytes; format: cell-based; settings: 500 nM E-4031
[3] = system: human embryonic stem cell-derived cardiomyocytes; assay: Intracellular action potential recording with sharp microelectrodes, cell type not specified; format: cell-based; settings: 500 nM E-4031
Procedure: as §1
Repolarization of the cardiac action potential is due to multiple ionic currents with an important role played by voltage gated K+ channels; however, there is significant species variability of the exact type of K+ channels present. […]

[4] = system: human embryonic stem cell-derived cardiomyocytes (beating EB outgrowths); assay: Contraction measurements of beating EB outgrowths by video edge detection during electrical field stimulation; format: cell-based; settings: 1 micromolar, EB electrically stimulated at 1 hertz, basal level defined as 100, FIG. 1
From the text: One problem in the testing of cardiomyocytes in EBs is that the rate of spontaneous beating is variable can be dependent on a variety of factors. […] This can be readily done by applying an electrical field stimulation to the EB. This is done most simply by applying electrodes to opposite sides of the culture container in which the EB is contained. […] It is necessary as a part of this process to maintain the EB culture at a constant temperature, since temperature changes can also effect the amplitude of EB beats. It is possible to optically scan the EBs during such beating, using imaging processing observing the EB with video microscopy, to determine the amplitude of the beats which occur in such an EB. […] Additionally other properties of the beat can be monitored such as the rate of contraction and relaxation of the embryoid body providing additional mechanistic information. […]
Contractions were measured using video edge detection. […] Individual beating EBs were monitored with Video Edge Detector VED 105 (Crescent Electronics) through CCD BW Camera NL-2332 (National Electronic) and Sony BW Video Monitor PVM-97 (Sony Corp). The twitch responses at sharp edge of beating EB outgrowth were recorded at 1 kHz through DigiData 1200 A/D converter with pClamp 8.2 acquisition software (both from Axon Instrument, Foster City, Calif.). […]

| SMILES | APD50 ([1]; 500 nM E-4031) | APD90 ([1]; 500 nM E-4031) | action potential duration ([1]; 500 nM E-4031) | action potential duration ([1]; 500 nanomolar E4031 added to EB culture, atrial type cell, FIG. 5) | APD50 [2] | action potential duration [2] | APD90 ([2]; larger effect on APD90 than APD50) | APA (action potential amplitude) [3] | MDP (maximum diastolic potential) [3] | amplitude of the beat or contraction of the EB [4] |
| --- | --- | --- | --- | --- | --- | --- | --- | --- | --- | --- |
| Cc1cccc(CCN2CCC(C(=O)c3ccc(NS(C)(=O)=O)cc3)CC2)n1 [E-4031] | not APD50 was significantly prolonged | significantly prolonged | action potential prolongation | prolonged | significant prolongation | action potential prolongation | significant prolongation | not statistically significant effects | not statistically significant effects | – |
| CC(C)NCC(O)c1ccc(O)c(O)c1 (stereo not shown) [isoproterenol] | – | – | – | – | – | – | – | – | – | increases dramatically |
